Results as given in PubChem BioAssay (NCI).
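At the GI50, growth is halved. TGI: total growth inhibition.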

Assays:
Assay in all cases: NCI anticancer screen, dose series, 384-well format
[1] = test system: OVCAR-4 ovarian
[2] = test system: HCT-15 colon
[3] = test system: UACC-62 melanoma
[4] = test system: MDA-MB-468 breast
[5] = test system: COLO 205 colon
[6] = test system: K-562 leukemia
[7] = test system: ACHN renal
[8] = test system: NCI-H460 NSCLC
[9] = test system: KM12 colon
[10] = test system: UACC-257 melanoma
[11] = test system: NCI/ADR-RES ovarian
[12] = test system: MCF7 breast
[13] = test system: T-47D breast
[14] = test system: NCI-H522 lung
[15] = test system: A549 NSCLC
[16] = test system: SW-620 colon
[17] = test system: NCI-H226 lung
[18] = test system: SK-MEL-28 melanoma
[19] = test system: HS 578T breast
[20] = test system: HOP-92 NSCLC
[21] = test system: MOLT-4 leukemia
[22] = test system: OVCAR-8 ovarian
[23] = test system: SR leukemia
[24] = test system: HOP-62 NSCLC
[25] = test system: SK-MEL-2 melanoma
[26] = test system: RPMI-8226 leukemia
[27] = test system: HCC-2998 colon
[28] = test system: SF-295 CNS
[29] = test system: OVCAR-5 ovarian
[30] = test system: NCI-H23 lung
[31] = test system: MDA-MB-231 breast
[32] = test system: RXF 393 renal
[33] = test system: TK-10 renal
[34] = test system: SF-539 CNS
[35] = test system: U251 glioblastoma
[36] = test system: SF-268 CNS
[37] = test system: LOX IMVI melanoma
[38] = test system: HL-60(TB) leukemia
[39] = test system: SK-OV-3 ovarian
[40] = test system: HT29 colon
[41] = test system: SK-MEL-5 melanoma
[42] = test system: PC-3 prostate
[43] = test system: MALME-3M melanoma
[44] = test system: EKVX NSCLC
[45] = test system: HCT-116 colon
[46] = test system: SN12C renal
[47] = test system: M14 melanoma

CNCc1ccc(C)c(NC(=O)c2ccc(Nc3nc(-c4ccccc4)c4ccccc4n3)cc2)c1
GI50 [1]: 1860 nM | TGI [1]: 3400 nM | GI50 [2]: 1050 nM | TGI [2]: 2390 nM | GI50 [3]: 1610 nM | TGI [3]: 2970 nM | GI50 [4]: 1710 nM | TGI [4]: 3090 nM | GI50 [5]: 1600 nM | TGI [5]: 2960 nM | GI50 [6]: 1400 nM | TGI [6]: 2740 nM | GI50 [7]: 1840 nM | TGI [7]: 3260 nM | GI50 [8]: 1360 nM | TGI [8]: 2710 nM | GI50 [9]: 1420 nM | TGI [9]: 2750 nM | GI50 [10]: 654 nM | TGI [10]: 1600 nM | GI50 [11]: 1860 nM | TGI [11]: 3330 nM | GI50 [12]: 1480 nM | TGI [12]: 2850 nM | GI50 [13]: 1450 nM | TGI [13]: 2780 nM | GI50 [14]: 1840 nM | TGI [14]: 3250 nM | GI50 [15]: 1800 nM | TGI [15]: 3240 nM | GI50 [16]: 1850 nM | TGI [16]: 3280 nM | GI50 [17]: 1880 nM | TGI [17]: 3360 nM | GI50 [18]: 1690 nM | TGI [18]: 3060 nM | GI50 [19]: 1930 nM | TGI [19]: 3340 nM | GI50 [20]: 1790 nM | TGI [20]: 3180 nM | GI50 [21]: 1510 nM | TGI [21]: 2850 nM | GI50 [22]: 1640 nM | TGI [22]: 3020 nM | GI50 [23]: 342 nM | TGI [23]: 799 nM | GI50 [24]: 1910 nM | TGI [24]: 3330 nM | GI50 [25]: 1810 nM | TGI [25]: 3210 nM | GI50 [26]: 1720 nM | TGI [26]: 3100 nM | GI50 [27]: 1280 nM | TGI [27]: 2550 nM | GI50 [28]: 1850 nM | TGI [28]: 3260 nM | GI50 [29]: 2040 nM | TGI [29]: 3990 nM | GI50 [30]: 1830 nM | TGI [30]: 3270 nM | GI50 [31]: 1840 nM | TGI [31]: 3250 nM | GI50 [32]: 1460 nM | TGI [32]: 2790 nM | GI50 [33]: 1810 nM | TGI [33]: 3290 nM | GI50 [34]: 1710 nM | TGI [34]: 3100 nM | GI50 [35]: 1730 nM | TGI [35]: 3130 nM | GI50 [36]: 1770 nM | TGI [36]: 3170 nM | GI50 [37]: 1550 nM | TGI [37]: 2910 nM | GI50 [38]: 1040 nM | TGI [38]: 2400 nM | GI50 [39]: 1780 nM | TGI [39]: 3180 nM | GI50 [40]: 1410 nM | TGI [40]: 2740 nM | GI50 [41]: 1390 nM | TGI [41]: 2690 nM | GI50 [42]: 1690 nM | TGI [42]: 3160 nM | GI50 [43]: 1310 nM | TGI [43]: 2590 nM | GI50 [44]: 1570 nM | TGI [44]: 2950 nM | GI50 [45]: 1730 nM | TGI [45]: 3160 nM | GI50 [46]: 1590 nM | TGI [46]: 2960 nM | GI50 [47]: 2030 nM | TGI [47]: 3470 nM
